# Data: ChEMBL document CHEMBL3885861, “Open TG-GATES”
# Species: Rattus norvegicus
# Assay: Open TG-GATES - Regimen: Single
# Format: toxicity, organism-based, Sprague-Dawley
# Design: regimen Single, gender Male, age 6 weeks
# Details: in vivo, po, 250 mg/kg, route gavage, dose level High; for APTT / Bas / Eos / Fbg / Hb / Ht / Lym / MCH / MCHC / MCV / Mono / Neu / PT / Plat / RBC / Ret / WBC: tissue Blood; for KIDNEY_L / KIDNEY_R / KIDNEY_TOTAL: tissue Kidney; for LIVER: tissue Liver; for A/G / ALP / ALT / AST / BUN / CRE / Ca / Cl / DBIL / GLC / IP / K / LDH / Na / PL / RALB / TBIL / TC / TG / TP / gamma-GTP: tissue Plasma
structure (smiles),measurement,setting,value
CCSCC[C@H](N)C(=O)O [ETHIONINE],TERMINAL_BW,3 h,215.1 g
same,APTT,3 h,18.5 s
same,Bas,3 h,0%
same,Eos,3 h,1%
same,Fbg,3 h,205.8 mg/dL
same,Hb,3 h,13.6 g/dL
same,Ht,3 h,40%
same,Lym,3 h,74%
same,MCH,3 h,21.4 pg
same,MCHC,3 h,34%
same,MCV,3 h,62.9 fL
same,Mono,3 h,2.6%
same,Neu,3 h,20.6%
same,PT,3 h,12.5 s
same,Plat,3 h,117.7 x10_4/uL
same,RBC,3 h,635.6 x10_4/ul
same,Ret,3 h,7%
same,WBC,3 h,90.5 x10_2/uL
same,KIDNEY_L,3 h,1 g
same,KIDNEY_R,3 h,1 g
same,KIDNEY_TOTAL,3 h,2 g
same,LIVER,3 h,9.7 g
same,A/G,3 h,1.4
same,ALP,3 h,1004.6 IU/L
same,ALT,3 h,37.6 IU/L
same,AST,3 h,68 IU/L
same,BUN,3 h,10.6 mg/dL
same,CRE,3 h,0.4 mg/dL
same,Ca,3 h,10.3 mg/dL
same,Cl,3 h,100.8 meq/L
same,DBIL,3 h,0.054 mg/dL
same,GLC,3 h,210.4 mg/dL
same,IP,3 h,9.8 mg/dL
same,K,3 h,3.8 meq/L
same,LDH,3 h,183.6 IU/L
same,Na,3 h,139.6 meq/L
same,PL,3 h,127.8 mg/dL
same,RALB,3 h,3.2 g/dL
same,TBIL,3 h,0.1 mg/dL
same,TC,3 h,71 mg/dL
same,TG,3 h,43.4 mg/dL
same,TP,3 h,5.4 g/dL
same,gamma-GTP,3 h,1.2 IU/L
same,TERMINAL_BW,6 h,215.3 g
same,APTT,6 h,19.4 s
same,Bas,6 h,0%
same,Eos,6 h,1%
same,Fbg,6 h,203.2 mg/dL
same,Hb,6 h,13 g/dL
same,Ht,6 h,38.2%
same,Lym,6 h,76%
same,MCH,6 h,21.4 pg
same,MCHC,6 h,34.1%
same,MCV,6 h,62.6 fL
same,Mono,6 h,2.8%
same,Neu,6 h,19.2%
same,PT,6 h,13.1 s
same,Plat,6 h,122.2 x10_4/uL
same,RBC,6 h,610.4 x10_4/ul
same,Ret,6 h,7.1%
same,WBC,6 h,98.9 x10_2/uL
same,KIDNEY_L,6 h,1 g
same,KIDNEY_R,6 h,1 g
same,KIDNEY_TOTAL,6 h,1.9 g
same,LIVER,6 h,9.2 g
same,A/G,6 h,1.3
same,ALP,6 h,809.2 IU/L
same,ALT,6 h,33.8 IU/L
same,AST,6 h,64.2 IU/L
same,BUN,6 h,10.4 mg/dL
same,CRE,6 h,0.4 mg/dL
same,Ca,6 h,10.2 mg/dL
same,Cl,6 h,102 meq/L
same,DBIL,6 h,0.058 mg/dL
same,GLC,6 h,198.8 mg/dL
same,IP,6 h,9.6 mg/dL
same,K,6 h,3.9 meq/L
same,LDH,6 h,213.8 IU/L
same,Na,6 h,139 meq/L
same,PL,6 h,116.6 mg/dL
same,RALB,6 h,3 g/dL
same,TBIL,6 h,0.1 mg/dL
same,TC,6 h,64.6 mg/dL
same,TG,6 h,44.4 mg/dL
same,TP,6 h,5.3 g/dL
same,gamma-GTP,6 h,1.6 IU/L
same,TERMINAL_BW,9 h,212.6 g
same,APTT,9 h,20.5 s
same,Bas,9 h,0%
same,Eos,9 h,1%
same,Fbg,9 h,214.2 mg/dL
same,Hb,9 h,13.3 g/dL
same,Ht,9 h,39.1%
same,Lym,9 h,73.6%
same,MCH,9 h,21.2 pg
same,MCHC,9 h,34.2%
same,MCV,9 h,62 fL
same,Mono,9 h,3.2%
same,Neu,9 h,21.2%
same,PT,9 h,13.3 s
same,Plat,9 h,127.2 x10_4/uL
same,RBC,9 h,630.2 x10_4/ul
same,Ret,9 h,7%
same,WBC,9 h,72.8 x10_2/uL
same,KIDNEY_L,9 h,1 g
same,KIDNEY_R,9 h,1 g
same,KIDNEY_TOTAL,9 h,2 g
same,LIVER,9 h,9 g
same,A/G,9 h,1.6
same,ALP,9 h,774 IU/L
same,ALT,9 h,29.8 IU/L
same,AST,9 h,58.4 IU/L
same,BUN,9 h,8 mg/dL
same,CRE,9 h,0.3 mg/dL
same,Ca,9 h,10.4 mg/dL
same,Cl,9 h,101.4 meq/L
same,DBIL,9 h,0.072 mg/dL
same,GLC,9 h,199 mg/dL
same,IP,9 h,9.3 mg/dL
same,K,9 h,3.6 meq/L
same,LDH,9 h,195 IU/L
same,Na,9 h,139.6 meq/L
same,PL,9 h,111.2 mg/dL
same,RALB,9 h,3.4 g/dL
same,TBIL,9 h,0.1 mg/dL
same,TC,9 h,57.2 mg/dL
same,TG,9 h,77.4 mg/dL
same,TP,9 h,5.6 g/dL
same,gamma-GTP,9 h,1.2 IU/L
same,TERMINAL_BW,24 h,221.6 g
same,APTT,24 h,22 s
same,Bas,24 h,0%
same,Eos,24 h,1%
same,Fbg,24 h,210.4 mg/dL
same,Hb,24 h,13.9 g/dL
same,Ht,24 h,41%
same,Lym,24 h,74.4%
same,MCH,24 h,21.3 pg
same,MCHC,24 h,34%
same,MCV,24 h,62.5 fL
same,Mono,24 h,5.8%
same,Neu,24 h,16.8%
same,PT,24 h,14.4 s
same,Plat,24 h,116 x10_4/uL
same,RBC,24 h,655 x10_4/ul
same,Ret,24 h,6.3%
same,WBC,24 h,94.1 x10_2/uL
same,KIDNEY_L,24 h,1 g
same,KIDNEY_R,24 h,1 g
same,KIDNEY_TOTAL,24 h,2 g
same,LIVER,24 h,10.6 g
same,A/G,24 h,1.6
same,ALP,24 h,988 IU/L
same,ALT,24 h,39 IU/L
same,AST,24 h,74.4 IU/L
same,BUN,24 h,16 mg/dL
same,CRE,24 h,0.4 mg/dL
same,Ca,24 h,10.6 mg/dL
same,Cl,24 h,101.4 meq/L
same,DBIL,24 h,0.1 mg/dL
same,GLC,24 h,198.2 mg/dL
same,IP,24 h,8.8 mg/dL
same,K,24 h,3.7 meq/L
same,LDH,24 h,211 IU/L
same,Na,24 h,140 meq/L
same,PL,24 h,122.6 mg/dL
same,RALB,24 h,3.4 g/dL
same,TBIL,24 h,0.2 mg/dL
same,TC,24 h,47.2 mg/dL
same,TG,24 h,144 mg/dL
same,TP,24 h,5.6 g/dL
same,gamma-GTP,24 h,1.2 IU/L
